# Experimental data published in publication PMC7754465, “Multiparameter Kinetic Analysis for Covalent Fragment Optimization by Using Quantitative Irreversible Tethering (qIT)” (Chembiochem, 2020).
# “Also recorded” adds a separate entry of the source.
# Target: T1, pCdk2(ES)/cyclin A holoenzyme (Homo sapiens, UniProt P24941, C177A/F80C)
# T1 construct: GST (N, cleaved yes); made in house; host or cells: E. coli Tuner(DE3); Cdk2 phosphorylated in vitro with GST-CAK1 (S. cerevisiae)
# Assay: spectrophotometric coupled (LDH/PK) kinase assay after labelling and dialysis
# Assay type: biochemical
# Conditions: treatment with 0.5 mM acrylamide, then dialysis to remove ligand
# Excerpt: Next we undertook biochemical validation of the electrophile sensitive approach using a spectrophotometric kinase assay. In this experiment the activity of Cdk2 is activated both by phosphorylation and interaction with cyclin A. The catalytic turnover of ATP is coupled to the oxidation of NADH by lactate dehydrogenase (LDH) and pyruvate kinase (PK), which is monitored by absorbance at 340 nm.
# H. Intact-protein mass spectrometry
# Protein-mass data were obtained on a Waters micromass LC-TOF mass spectrometer in positive ion mode using electrospray ionization. Samples were chromatographed using an Acquity UPLC protein BEH C4 column (2.1 mm × 50 mm, 2.7 µm) with a flow rate of 30 µL/min. The injection volume was 5 µL of protein solution (5 µM) in 30 mM ammonium bicarbonate buffer con-taining 0.5% formic acid and 20% MeOH. The gradient used was 100% mobile phase A (0.1% formic acid in water/MeOH (19:1)) ramping linearly to 90% mobile phase B (0.1% formic acid in MeOH) over 5 minutes. […]
# 4EK3) and the model was iteratively refined using Phenix.Refine[13] with manual modelling and adjustments carried out in COOT[14]. […] Electron density maps were calculated using FFT[17] and figures were prepared using PyMol (Schrö dinger). […]
row,SMILES,inhibition of kinase activity
1,C=CC(=O)Nc1ccc(-c2ncccn2)cc1 [S1],complete irreversible inhbition
2,C=CC(=O)N1CCCc2cc(C(=O)OC)ccc21 [compound 1],complete irreversible inhbition; also recorded: complete inhibition
